Series [1] in a line: Measurement of solubility in water by 1H NMR. The format is physicochemical. The note with it: for solubility at 30 min: water, thermodynamic from solid. The procedure:
Water solubilities of methanesulfonates (MSA) of representative compounds among the oxazolidinone derivatives of Chemical Formula 1 were measured.
Solubility measurement was done by ^1H NMR according to the following method. First, a methanesulfonate (100 mg) of the compound was added to D2O (0.5 mL). After preparing a saturated solution by vigorous shaking for 30 minutes, the solution was filtered and 0.3 mL is taken therefrom. A reference compound solution (0.3 mL) (In this test example, DMSO diluted with D2O was used.) with an exactly known concentration was added thereto. From the ^1H NMR spectrum of the solution, the integral ratio of the sample peak to the reference (DMSO) peak was calculated. Since the concentration of the reference solution is known, the mols of the sample can be calculated from the integral ratio. Then, the solubility of the sample was calculated.

Series [2] can be described thus: Cytotoxicity measurement by MTT assay. The note with it: Chinese hamster. The series is classed as cell-based. The source says: The MTT assay is a […], colorimetric assay for mammalian cell survival and cell proliferation. It depends on the reduction of tetrazolium salt MTT by the mito-chondrial succinate dehrogenase of viable cells to form a blue formazan product. The assay measures cell respiration, and the amount of formazan product to the number of living cells present in culture. In this test, Chinese hamster ovary cells (CHO-K1) were purchased from ATCC (USA). Subcultured CHO cells were detached from the culture flask by treating with trypsin-EDTA solution, and seeded on a 96-well microplate, with 5000 cells per each well. After culturing for 24 hours in a 37° C., 5% CO2 incubator, the cells were treated with the oxazolidinone derivatives according to the present invention synthesized in the above examples, at 7 different concentrations. After further culturing for 48 hours in a 37° C., 5% CO2 incubator, 15 uL of […] MTT solution was added to each well. The cells were further incubated in the 37° C., 5% CO2 incubator for about 2 hours. Then, the culture medium was discarded and 100 uL of DMSO solution was added to each well. After agitating the microplate for 30 minutes, absorbance was measured at 550 nm using Spectramax plus 190 plate reader (Molecular Devices, USA). The absorbance decrease of the compound-treated groups compared to the non-treated control group is an indication of the decrease of surviving cells, which enables the measurement of the cytotoxicity of the compounds. The CC50 value, i.e., the concentration at which the cell proliferation is reduced to 50%, of the compounds according to the present invention was computed using the GraFit statistical analysis program (version 5.0.12) purchased from Erithacus Software after calculating the percentages of the absorbance at various concentrations as compared to the control group.

For series [3], the target named is T1, monoamine oxidase A (MAO A) (Homo sapiens, UniProt P21397).
T1 construct: purchased Sigma-Aldrich (USA)
T1 sequence (P21397 1-527): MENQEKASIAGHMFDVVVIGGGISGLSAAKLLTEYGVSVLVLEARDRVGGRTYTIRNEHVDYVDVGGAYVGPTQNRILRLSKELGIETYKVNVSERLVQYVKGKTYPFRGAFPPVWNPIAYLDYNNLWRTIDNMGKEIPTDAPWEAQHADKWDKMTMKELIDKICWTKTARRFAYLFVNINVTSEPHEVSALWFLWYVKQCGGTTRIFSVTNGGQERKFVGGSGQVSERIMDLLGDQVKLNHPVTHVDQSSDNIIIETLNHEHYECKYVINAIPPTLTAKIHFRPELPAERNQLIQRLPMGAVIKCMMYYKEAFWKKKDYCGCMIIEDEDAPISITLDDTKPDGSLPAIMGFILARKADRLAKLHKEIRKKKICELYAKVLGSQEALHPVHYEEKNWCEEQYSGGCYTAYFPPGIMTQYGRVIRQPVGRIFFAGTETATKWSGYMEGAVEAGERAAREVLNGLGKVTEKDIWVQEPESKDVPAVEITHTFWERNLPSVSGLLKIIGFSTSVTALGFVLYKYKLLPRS
The series can be described thus: MAO inhibition (MAO-GLO assay). The format is biochemical. The note with it: MAO-GLO kit, compounds at 3.9-500 uM; read-out: MAOA. The procedure:
(§1) The oxazolidinone derivatives according to the present invention synthesized in the examples were tested for inhibition of monoamine oxidase A (MAO A) and monoamine oxidase B (MAO B). MAO-GLO assay kit was purchased from Promega (USA) and MAO A and MAO B enzymes were purchased from Sigma-Aldrich (USA). From the aldehyde product resulting from the action of the MAO enzyme on the amine group of the substrate, luciferin methyl ester is produced. The luciferin detection reagent is then added to inactivate the MAO enzymes. The esterase and the luciferase included in the reagent oxidize luciferin, thereby emitting light. The light emission is detected to measure the activity of MAO. The light emission was detected using LEADseeker (Amershan Bioscience, Sweden). MAO activity was measured in the presence of the compounds according to the present invention at 3.9-500 uM and compared with the non-treated control group. Linezolid was used as a comparison compound. For the measurement of the MAO inhibition activity of the compounds represented by Chemical Formula 1, the IC50 value, i.e., the concentration of the compounds at which the enzymatic activity is inhibited by 50% (This value is related with the inhibition constant Ki), can be determined. The concentration of the inhibitor at which the rate of hydrolysis of the substrate is reduced to 50% (i.e., the IC50 value) can be determined from a log plot of the relative rate of hydrolysis (as compared to the non-inhibited control group) versus the concentration of the compounds of Chemical Formula 1.
(§2) The MAO inhibition effect of the compounds of Chemical Formula 1 was measured by determining the inhibition constant Ki. Ki=IC50/{1+(┌S┐/Km)} Equation 1
(§3) In Equation 1, Km is the Michaelis-Menten constant, i.e., the concentration of the substrate at which the rate of enzymatic reaction is half of the maximum, and IC50 is the concentration of the inhibitor at which the rate of the hydrolysis of the substrate is reduced by 50%. The IC50 value was measured by plotting a log plot of the relative rate of hydrolysis (as compared to the non-inhibited control group) versus the concentration of the compounds of Chemical Formula 1. GraFit statistical analysis program (version 5.0.12) purchased from Erithacus Software was used.

The target of series [4] is T2, monoamine oxidase B (MAO B) (Homo sapiens, UniProt P27338).
T2 construct: purchased Sigma-Aldrich (USA)
T2 sequence (P27338 1-520): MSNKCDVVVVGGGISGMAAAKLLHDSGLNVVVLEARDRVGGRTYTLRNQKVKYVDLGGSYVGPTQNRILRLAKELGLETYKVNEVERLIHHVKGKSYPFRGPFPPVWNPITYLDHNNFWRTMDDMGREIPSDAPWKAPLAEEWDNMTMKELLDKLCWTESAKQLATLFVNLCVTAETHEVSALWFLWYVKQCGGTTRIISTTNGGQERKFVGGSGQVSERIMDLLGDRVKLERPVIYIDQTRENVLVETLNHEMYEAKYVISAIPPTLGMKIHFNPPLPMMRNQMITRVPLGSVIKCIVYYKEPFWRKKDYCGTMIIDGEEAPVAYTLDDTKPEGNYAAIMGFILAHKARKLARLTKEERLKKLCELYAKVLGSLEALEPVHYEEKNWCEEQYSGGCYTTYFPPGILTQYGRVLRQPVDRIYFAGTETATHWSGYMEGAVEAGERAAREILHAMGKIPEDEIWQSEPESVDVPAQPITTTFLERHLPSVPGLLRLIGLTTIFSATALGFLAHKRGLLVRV
The series can be described thus: MAO inhibition (MAO-GLO assay). The format is biochemical. The note with it: MAO-GLO kit, compounds at 3.9-500 uM; read-out: MAOB. The method, then:
as §1, §2, §3

Series [5] deals with methicillin-resistant Staphylococcus aureus (MRSA). The series can be described thus: In vitro antibacterial activity, broth microdilution (MIC90). The note with it: read-out: Antibacterial activity MIC90, MRSA. On the technique in general: In broth dilution the organism is exposed to a series of concentrations in liquid medium.
Description: (§4) MIC90 measurement was made according to the broth microdilution method based on the CLSI document [Clinical and Laboratory Standards Institute Document.
(§5) The test compounds in DMSO solution were further diluted 20-fold with sterile distilled water.
For series [6], the system named is linezolid- and vancomycin-resistant Enterococcus faecalis (LVRE). The description is as above. The note with it: read-out: Antibacterial activity MIC90, LVRE.
Description: as §4, §5

The structures appear in SMILES notation. Converted amounts (≈) assume the structure as drawn. Where two headings read alike, the source gives them in different places. Where only a bound is given, the exact number is not on record here.

This is an account of results in patent US8242113B2, “Oxazolidinone derivatives with cyclic amidoxime or cyclic amidrazone pharmaceutical compositions thereof” (Legochem Biosciences, Inc., priority 2008, dated 2012).

What is called solubility is how much of the substance goes into solution per volume. A word on the CC50: it is the concentration at which the toxic effect on the cells reaches its halfway point. The term MIC90 denotes an inhibitory concentration at the 90% level, which refers to growth in some studies and to a panel of isolates in others. As to `CN1CCN(c2ccc(N3C[C@H](CNc4ccon4)OC3=O)cc2F)C=N1` [Compound 89], the “% solubility in water” value in series [1] (methanesulfonate (MSA) of the compound, saturated solution in D2O, linezolid as reference) is “(13%)”. Also, the solubility at 30 min in series [1] (read-out: Solubility of methanesulfonate in water) was 129 mg/mL (≈ 345000 µM). Further, the CC50 at 48 h in series [2] (CHO-K1 cells, 48 hours treatment, MTT, read-out: CC50) is > 130 µM. Further, the IC50 in series [3] is 5.2 µM; in series [4], > 250 µM. In addition, the MIC90 in series [5] turned out to be 0.5 µg/mL (≈ 1.34 µM). Besides, the MIC in series [6] was 8 µg/mL (≈ 21.4 µM).
In series [1], `CN1CCN(c2ccc(N3C[C@H](CO)OC3=O)cc2F)C=N1` [Compound 94] gave a solubility at 30 min of 136 mg/mL (≈ 441000 µM). In addition, the 50% cytotoxic concentration (CC50) at 48 h in series [2] was > 130 µM. Moreover, the IC50 in series [3] was determined as 4 µM; in series [4], 176 µM. In addition, the MIC90 in series [5] is 1 µg/mL (≈ 3.24 µM). Also, the MIC in series [6] worked out at 64 µg/mL (≈ 208 µM).
